36 compounds from patent US7569567B2, “3-Heteroaryl-3,5-dihydro-4-oxo-4H-pyridazino[4,5-B]indole-1-carboxamide derivatives, their preparation and therapeutic use” (sanofi-aventis, priority 2001, dated 2009) can be followed below.

Consider `CN(C)C(=O)c1nn(-c2cccnc2)c(=O)c2c1c1ccc(Cl)cc1n2C.Cl`, for which the melting point is 228 to 230 °C.
As for `CN(C)C(=O)c1nn(-c2ccncc2)c(=O)c2c1c1ccc(Cl)cc1n2C.Cl`, the figure is 263 to 265 °C; as for `Cl.Cn1c2cc(Cl)ccc2c2c(C(=O)N3CCCC3)nn(-c3cccnc3)c(=O)c21`, 232 to 234 °C; as for `CN1CCN(C(=O)c2nn(-c3cccnc3)c(=O)c3c2c2ccc(Cl)cc2n3C)CC1.Cl`, 267 to 268 °C.
The value for `CN(C)C(=O)c1nn(-c2ccncc2)c(=O)c2c1c1ccc(F)cc1n2C.Cl` was 266 to 271 °C; that for `CN1CCN(C(=O)c2nn(-c3cccnc3)c(=O)c3c2c2ccc(F)cc2n3C)CC1.Cl` was 269 to 273 °C; that for `CN(C)C(=O)c1nn(-c2ccccn2)c(=O)c2c1c1ccc(F)cc1n2C` [Compound 1, 7-fluoro-N,N,5-trimethyl-4-oxo-3-(pyridin-2-yl)-3,5-dihydro-4H-pyridazino[4,5-b]indole-1-carboxamide] was 199 to 200 °C.
As for `CN(C)C(=O)c1nn(-c2cccnc2)c(=O)c2c1c1ccc(F)cc1n2C` [Compound 2, 7-fluoro-N,N,5-trimethyl-4-oxo-3-(pyridin-3-yl)-3,5-dihydro-4H-pyridazino[4,5-b]indole-1-carboxamide], the figure is 220 to 221 °C; as for `COc1ccc(-n2nc(C(=O)N(C)C)c3c4ccc(F)cc4n(C)c3c2=O)cn1` [Compound 4, 7-fluoro-N,N,5-trimethyl-4-oxo-3-(2-methoxypyridin-5-yl)-3,5-dihydro-4H-pyridazino[4,5-b]indole-1-carboxamide], 225 to 226 °C; as for `CN(C)C(=O)c1nn(-c2cnc3ccccc3c2)c(=O)c2c1c1ccc(F)cc1n2C` [Compound 5, 7-fluoro-N,N,5-trimethyl-4-oxo-3-(quinolin-3-yl)-3,5-dihydro-4H-pyridazino[4,5-b]indole-1-carboxamide], 237 to 238 °C.
In turn, `Cn1c2cc(F)ccc2c2c(C(=O)N3CCCC3)nn(-c3ncccn3)c(=O)c21` [Compound 6, 1-[[7-fluoro-5-methyl-3-(pyrimidin-2-yl)-4-oxo-3,5-dihydro-4H-pyridazino[4,5-b]indol-1-yl]carbonyl]-pyrrolidine] had a melting point of 238 to 239 °C.
The value for `Cn1c2cc(F)ccc2c2c(C(=O)N3CCCC3)nn(-c3cccnc3)c(=O)c21` [Compound 8, 1-[[7-fluoro-5-methyl-3-(pyridin-3-yl)-4-oxo-3,5-dihydro-4H-pyridazino[4,5-b]indol-1-yl]carbonyl]-pyrrolidine] was 220 to 221 °C.
In turn, `CNC(=O)c1nn(-c2cccnc2)c(=O)c2c1c1ccc(F)cc1n2C` [Compound 9, 7-fluoro-N,5-dimethyl-4-oxo-3-(pyridin-3-yl)-3,5-dihydro-4H-pyridazino[4,5-b]indole-1-carboxamide] came in with a melting point of 270 to 272 °C.
Turning to `Cn1c2cc(F)ccc2c2c(C(N)=O)nn(-c3cccnc3)c(=O)c21` [Compound 10, 7-fluoro-5-methyl-4-oxo-3-(pyridin-3-yl)-3,5-dihydro-4H-pyridazino[4,5-b]indole-1-carboxamide], the melting point was 319 to 320 °C.
The value for `CN(C)C(=O)c1nn(-c2ccccn2)c(=O)c2c1c1ccc(Cl)cc1n2C` [Compound 11, 7-chloro-N,N,5-trimethyl-4-oxo-3-(pyridin-2-yl)-3,5-dihydro-4H-pyridazino[4,5-b]indole-1-carboxamide] was 210 to 211 °C; that for `CN(C)C(=O)c1nn(-c2ccncc2)c(=O)c2c1c1ccc(Cl)cc1n2C` [Compound 13, 7-chloro-N,N,5-trimethyl-4-oxo-3-(pyridin-4-yl)-3,5-dihydro-4H-pyridazino[4,5-b]indole-1-carboxamide] was 276 to 278 °C.
The value for `Cc1ccc(-n2nc(C(=O)N(C)C)c3c4ccc(Cl)cc4n(C)c3c2=O)nc1` [Compound 15, 7-chloro-N,N,5-trimethyl-4-oxo-3-(5-methylpyridin-2-yl)-3,5-dihydro-4H-pyridazino[4,5-b]indole-1-carboxamide] was 222 to 224 °C; that for `COc1ccc(-n2nc(C(=O)N(C)C)c3c4ccc(Cl)cc4n(C)c3c2=O)cn1` [Compound 16, 7-chloro-N,N,5-trimethyl-4-oxo-3-(2-methoxypyridin-5-yl)-3,5-dihydro-4H-pyridazino[4,5-b]indole-1-carboxamide] was 236 to 237 °C; that for `Cc1ccc(-n2nc(C(=O)N(C)C)c3c4ccc(Cl)cc4n(C)c3c2=O)cn1` [Compound 17, 7-chloro-N,N,5-trimethyl-4-oxo-3-(2-methylpyridin-5-yl)-3,5-dihydro-4H-pyridazino[4,5-b]indole-1-carboxamide] was 214 to 216 °C.
As for `CN(C)C(=O)c1nn(-c2ccc(Br)nc2)c(=O)c2c1c1ccc(Cl)cc1n2C` [Compound 18, 7-chloro-N,N,5-trimethyl-4-oxo-3-(2-bromopyridin-5-yl)-3,5-dihydro-4H-pyridazino[4,5-b]indole-1-carboxamide], the figure is 250 to 252 °C; as for `CN(C)C(=O)c1nn(-c2cnc3ccccc3c2)c(=O)c2c1c1ccc(Cl)cc1n2C` [Compound 19, 7-chloro-N,N,5-trimethyl-4-oxo-3-(quinolin-3-yl)-3,5-dihydro-4H-pyridazino[4,5-b]indole-1-carboxamide], 271 to 272 °C.
`CN(C)C(=O)c1nn(-c2cncc3ccccc23)c(=O)c2c1c1ccc(Cl)cc1n2C` [Compound 20, 7-chloro-N,N,5-trimethyl-4-oxo-3-(isoquinolin-4-yl)-3,5-dihydro-4H-pyridazino[4,5-b]indole-1-carboxamide] registered a melting point of 189 to 191 °C.
Compound `Cc1ccc(-n2nc(C(=O)N(C)C)c3c4ccc(Cl)cc4n(C)c3c2=O)nn1` [Compound 21, 7-chloro-N,N,5-trimethyl-4-oxo-3-(6-methyl-pyridazin-3-yl)-3,5-dihydro-4H-pyridazino[4,5-b]indole-1-carboxamide] registered a melting point of 238 to 239 °C.
The value for `CN(C)C(=O)c1nn(-c2cncnc2)c(=O)c2c1c1ccc(Cl)cc1n2C` [Compound 22, 7-chloro-N,N,5-trimethyl-4-oxo-3-(pyrimidin-5-yl)-3,5-dihydro-4H-pyridazino[4,5-b]indole-1-carboxamide] was 251 to 252 °C; that for `CN(C)C(=O)c1nn(-c2ncccn2)c(=O)c2c1c1ccc(Cl)cc1n2C` [Compound 23, 7-chloro-N,N,5-trimethyl-4-oxo-3-(pyrimidin-2-yl)-3,5-dihydro-4H-pyridazino[4,5-b]indole-1-carboxamide] was 272 to 274 °C; that for `CN(C)C(=O)c1nn(-c2cnccn2)c(=O)c2c1c1ccc(Cl)cc1n2C` [Compound 24, 7-chloro-N,N,5-trimethyl-4-oxo-3-(pyrazin-2-yl)-3,5-dihydro-4H-pyridazino[4,5-b]indole-1-carboxamide] was 231 to 232 °C.
For the compound `Cn1c2cc(Cl)ccc2c2c(C(=O)N3CCCC3)nn(-c3ccncc3)c(=O)c21` [Compound 27, 1-[[7-chloro-5-methyl-3-(pyridin-4-yl)-4-oxo-3,5-dihydro-4H-pyridazino[4,5-b]indol-1-yl]carbonyl]-pyrrolidine], the melting point was in the range of 236 to 237 °C.
In turn, `CNC(=O)c1nn(-c2ccncc2)c(=O)c2c1c1ccc(Cl)cc1n2C` [Compound 28, 7-chloro-N,5-dimethyl-4-oxo-3-(pyridin-4-yl)-3,5-dihydro-4H-pyridazino[4,5-b]indole-1-carboxamide] showed a melting point of 321 to 323 °C.
`Cn1c2cc(Cl)ccc2c2c(C(N)=O)nn(-c3ccncc3)c(=O)c21` [Compound 29, 7-chloro-5-methyl-4-oxo-3-(pyridin-4-yl)-3,5-dihydro-4H-pyridazino[4,5-b]indole-1-carboxamide] gave a melting point of 341 to 346 °C.
The value for `COc1ccnc(-n2nc(C(=O)N(C)C)c3c4ccc(Cl)cc4n(C)c3c2=O)c1` [Compound 30, 7-chloro-N,N,5-trimethyl-4-oxo-3-(4-methoxypyridin-2-yl)-3,5-dihydro-4H-pyridazino[4,5-b]indole-1-carboxamide] was 243 to 244 °C; that for `CCN(C)C(=O)c1nn(-c2ccncc2)c(=O)c2c1c1ccc(Cl)cc1n2C` [Compound 33, 7-chloro-N-ethyl-N,5-dimethyl-4-oxo-3-(pyridin-4-yl)-3,5-dihydro-4H-pyridazino[4,5-b]indole-1-carboxamide] was 211 to 213 °C.
As for `Cn1c2cc(Cl)ccc2c2c(C(=O)N3CCCCC3)nn(-c3ccncc3)c(=O)c21` [Compound 34, 1-[[7-chloro-5-methyl-3-(pyridin-4-yl)-4-oxo-3,5-dihydro-4H-pyridazino[4,5-b]indol-1-yl]carbonyl]-piperidine], the figure is 242 to 243 °C.
As for `Cc1cc(-n2nc(C(=O)N(C)C)c3c4ccc(Cl)cc4n(C)c3c2=O)ccn1` [Compound 35, 7-chloro-N,N,5-trimethyl-4-oxo-3-(2-methylpyridin-4-yl)-3,5-dihydro-4H-pyridazino[4,5-b]indole-1-carboxamide], the figure is 267 to 269 °C.
Consider `Cc1cc(-n2nc(C(=O)N3CCCC3)c3c4ccc(Cl)cc4n(C)c3c2=O)ccn1` [Compound 36, 1-[[7-chloro-5-methyl-3-(2-methylpyridin-4-yl)-4-oxo-3,5-dihydro-4H-pyridazino[4,5-b]indol-1-yl]carbonyl]pyrrolidine], for which the melting point lay in the range of 246 to 247 °C.
As for `CN(C)C(=O)c1nn(-c2cc[n+]([O-])cc2)c(=O)c2c1c1ccc(Cl)cc1n2C` [Compound 37, 7-chloro-N,N,5-trimethyl-3-(1-oxidopyridin-4-yl)-4-oxo-3,5-dihydro-4H-pyridazino[4,5-b]indole-1-carboxamide], the figure is 301 to 304 °C.
The value for `COc1cc(-n2nc(C(=O)N(C)C)c3c4ccc(Cl)cc4n(C)c3c2=O)ccn1` [Compound 38, 7-chloro-3-(2-methoxypyridin-4-yl)-N,N,5-trimethyl-4-oxo-3,5-dihydro-4H-pyridazino[4,5-b]indole-1-carboxamide] was 237 to 238 °C.
